# Measurements reported in US9073821B2, “Hydroxamic acid derivative” (priority 2010, dated 2015).
# Molecular target: Pseudomonas aeruginosa LpxC enzyme (Pseudomonas aeruginosa (strain ATCC 15692 / DSM 22644 / CIP 104116 / JCM 14847 / LMG 12228 / 1C / PRS 101 / PAO1), UniProt P47205)
# Test: biochemical
# Format: biochemical
# Details: not given
# Description: Test 1: Evaluation of the Inhibitory Activity on Pseudomonas aeruginosa LpxC Enzyme
# An inhibition curve was constructed for each test compound by performing the aforementioned reaction at varying concentrations of the test compound. From this inhibition curve, the concentration of the test compound at which the formation of the reaction product was suppressed by 50% was determined as the IC50 of the test compound, which was an index for the inhibitory activity on Pseudomonas aeruginosa LpxC enzyme.
row,Compound,IC50
1,"CNC(=O)C(C(=O)NO)N(C)C(=O)c1ccc(C#Cc2ccc(CN3C4CCC3CC4)cc2)cc1 (stereo not drawn) [Compound 527, 2-{[(4-{[4-(7-azabicyclo[2.2.1]hept-7-ylmethyl)phenyl]ethynyl}phenyl)carbonyl](methyl)amino}-N-hydroxy-N′-methylpropanediamide]",10 to 100 nM

# Same assay, conditions: class symbols A/B/C by IC50; Table 3; read-out: Enzyme inhibitory activity (inhibitory activity on Pseudomonas aeruginosa LpxC enzyme)
row,Compound,IC50
1,"CCOC1CN(Cc2ccc(C#Cc3ccc(C(=O)N(C)C(C(=O)NC)C(=O)NO)cc3)cc2C(F)(F)F)C1 (stereo not drawn) [Compound 573, 2-[{[4-({4-[(3-ethoxyazetidin-1-yl)methyl]-3-(trifluoromethyl)phenyl}ethynyl)phenyl]carbonyl}(methyl)amino]-N-hydroxy-N′-methylpropanediamide]",< 10 nM
2,"CNC(=O)C(C(=O)NO)N(C)C(=O)c1ccc(C#CC2CC2)cc1 (stereo not drawn) [Compound 503, 2-[{[4-(cyclopropylethynyl)phenyl]carbonyl}(methyl)amino]-N-hydroxy-N′-methylpropanediamide]",> 100 nM
3,"CCOC1CN(Cc2ccc(C#Cc3ccc(C(=O)N(C)C(C(=O)NC)C(=O)NO)cc3)c(C(F)(F)F)c2)C1 (stereo not drawn) [Compound 574, 2-[{[4-({4-[(3-ethoxyazetidin-1-yl)methyl]-2-(trifluoromethyl)phenyl}ethynyl)phenyl]carbonyl}(methyl)amino]-N-hydroxy-N′-methylpropanediamide]",< 10 nM
4,"CNC(=O)[C@@](C)(C(=O)NO)N(C)C(=O)c1ccc(C#Cc2csc(C)n2)cc1 [Compound 586, (2S)-N-hydroxy-N′,2-dimethyl-2-[methyl({4-[(2-methyl-1,3-thiazol-4-yl)ethynyl]phenyl}carbonyl)amino]propanediamide]",10 to 100 nM
5,"CNC(=O)C(C(=O)NO)N(C)C(=O)c1ccc(C#Cc2ccc(CN3CC(C)(C)C3)cc2)cc1 (stereo not drawn) [Compound 525, 2-[{[4-({4-[(3,3-dimethylazetidin-1-yl)methyl]phenyl}ethynyl)phenyl]carbonyl}(methyl)amino]-N-hydroxy-N′-methylpropanediamide]",10 to 100 nM

# Same assay, conditions: inhibitory activity on Pseudomonas aeruginosa LpxC enzyme, class symbols A/B/C; read-out: Enzyme inhibitory activity
row,Compound,IC50
1,"CNC(=O)C(C)(C(=O)NO)N(C)C(=O)c1ccc(C#Cc2ccc(CN3CCCOCC3)cc2)cc1 (stereo not drawn) [Compound 346, N-hydroxy-N′,2-dimethyl-2-{methyl[(4-{[4-(1,4-oxazepan-4-ylmethyl)phenyl]ethynyl}phenyl)carbonyl]amino}propanediamide]",< 10 nM
2,"CNC(=O)C(C(=O)NO)N(C)C(=O)c1ccc(-c2ccc(C(=O)NC(C)(C)C)cc2)cc1 (stereo not drawn) [Compound 248, N′-tert-butyl-N-[1-(hydroxyamino)-3-(methylamino)-1,3-dioxopropan-2-yl]-N-methylbiphenyl-4,4′-dicarboxamide]",10 to 100 nM
3,"CCCNC(=O)C(C(=O)NO)N(C)C(=O)c1ccc(-c2ccccc2)cc1 (stereo not drawn) [Compound 171, 2-[(biphenyl-4-ylcarbonyl)(methyl)amino]-N-hydroxy-N′-propylpropanediamide]",> 100 nM
4,"CNC(=O)C(C(=O)NO)N(C)C(=O)c1ccc(-c2ccc(NCCCN3CCOCC3)cc2)cc1 (stereo not drawn) [Compound 86, N-hydroxy-N′-methyl-2-{methyl[(4′-{[3-(morpholin-4-yl)propyl]amino}biphenyl-4-yl)carbonyl]amino}propanediamide]",10 to 100 nM
5,"CNC(=O)C(C(=O)NO)N(C)C(=O)c1ccc(-c2ccc(CN3CCOCC3)cc2)cc1 (stereo not drawn) [Compound 232, N-hydroxy-N′-methyl-2-(methyl {[4′-(morpholin-4-ylmethyl)biphenyl-4-yl]carbonyl}amino)propanediamide]",10 to 100 nM
6,"CNC(=O)C(C(=O)NO)N(C)C(=O)c1ccc(-c2cccs2)cc1 (stereo not drawn) [Compound 308, N-hydroxy-N′-methyl-2-(methyl {[4-(thiophen-2-yl)phenyl]carbonyl}amino)propanediamide]",10 to 100 nM
7,"CNC(=O)C(C(=O)NO)N(C)C(=O)c1ccc(-c2ccc(C(C)(C)C)cc2)cc1 (stereo not drawn) [Compound 240, 2-{[(4′-tert-butylbiphenyl-4-yl)carbonyl](methyl)amino}-N-hydroxy-N′-methylpropanediamide]",10 to 100 nM
8,"CN(C)C(=O)C(NC(=O)c1ccc(-c2ccc(OCCO)cc2)cc1)C(=O)NO (stereo not drawn) [Compound 118, N′-hydroxy-2-({[4′-(2-hydroxyethoxy)biphenyl-4-yl]carbonyl}amino)-N,N-dimethylpropanediamide]",> 100 nM
9,"CNC(=O)C(C(=O)NO)N(C)C(=O)c1ccc(C#Cc2ccc(C3(N)CC3)cc2)cc1 (stereo not drawn) [Compound 394, 2-{[(4-{[4-(1-aminocyclopropyl)phenyl]ethynyl}phenyl)carbonyl](methyl)amino}-N-hydroxy-N′-methylpropanediamide]",10 to 100 nM
10,"CNC(=O)C(C(=O)NO)N(C)C(=O)c1ccc(-c2ccc(OCCCN3CCCOCC3)cc2)cc1 (stereo not drawn) [Compound 277, N-hydroxy-N′-methyl-2-[methyl({4′-[3-(1,4-oxazepan-4-yl)propoxy]biphenyl-4-yl}carbonyl)amino]propanediamide]",< 10 nM
11,"CNC(=O)C(C(=O)NO)N(C)C(=O)c1ccc(C#C/C=C/c2ccc(OC)nc2)cc1 (stereo not drawn) [Compound 478, N-hydroxy-2-[({4-[(3E)-4-(6-methoxypyridin-3-yl)but-3-en-1-yn-1-yl]phenyl}carbonyl)(methyl)amino]-N′-methylpropanediamide]",< 10 nM
12,"CNC(=O)C(C(=O)NO)N(C)C(=O)c1ccc(-c2ccc3c(c2)cc(C)n3C)cc1 (stereo not drawn) [Compound 57, 2-{[4-(1,2-dimethyl-1H-indol-5-yl)benzoyl](methyl)amino}-N-hydroxy-N′-methylpropanediamide]",< 10 nM
13,"CNC(=O)C(NC(=O)c1ccc(-c2ccccc2)cc1)C(=O)NO (stereo not drawn) [Compound 110, 2-[(biphenyl-4-ylcarbonyl)amino]-N-hydroxy-N′-methylpropanediamide]",10 to 100 nM
14,"CCNc1ccc(-c2ccc(C(=O)N(C)C(C(=O)NC)C(=O)NO)cc2)cc1F (stereo not drawn) [Compound 230, 2-[{[4′-(ethylamino)-3′-fluorobiphenyl-4-yl]carbonyl}(methyl)amino]-N-hydroxy-N′-methylpropanediamide]",< 10 nM
15,"CNC(=O)C(C(=O)NO)N(C)C(=O)c1ccc(-c2ccc3[nH]c(C)cc3c2)cc1 (stereo not drawn) [Compound 203, N-hydroxy-N′-methyl-2-{methyl[4-(2-methyl-1H-indol-5-yl)benzoyl]amino}propanediamide]",< 10 nM
16,"CNC(=O)C(C(=O)NO)N(C)C(=O)c1ccc(-c2ccc(OCC3(CN4CCOCC4)CC3)cc2)cc1 (stereo not drawn) [Compound 102, N-hydroxy-N′-methyl-2-{methyl[(4′-{[1-(morpholin-4-ylmethyl)cyclopropyl]methoxy}biphenyl-4-yl)carbonyl]amino}propanediamide]",10 to 100 nM
17,"CNC(=O)C(C(=O)NO)N(C)C(=O)c1cnc(-c2ccc(OC)cc2)c(F)c1 (stereo not drawn) [Compound 457, 2-[{[5-fluoro-6-(4-methoxyphenyl)pyridin-3-yl]carbonyl}(methyl)amino]-N-hydroxy-N′-methylpropanediamide]",10 to 100 nM

# Further lines, results first:
row,IC50,Compound
1,< 10 nM,"CNC(=O)C(C(=O)NO)N(C)C(=O)c1ccc(C#Cc2ccc(C(C)N3CCOCC3)cc2)cc1 (stereo not drawn) [Compound 367, N-hydroxy-N′-methyl-2-(methyl {[4-({4-[1-(morpholin-4-yl)ethyl]phenyl}ethynyl)phenyl]carbonyl}amino)propanediamide]"
2,< 10 nM,"CNC(=O)C(C(=O)NO)N(C)C(=O)c1ccc(-c2ccc(CCF)cc2)cc1 (stereo not drawn) [Compound 238, 2-[{[4′-(2-fluoroethyl)biphenyl-4-yl]carbonyl}(methyl)amino]-N-hydroxy-N′-methylpropanediamide]"
3,< 10 nM,"CNC(=O)C(C(=O)NO)N(C)C(=O)c1ccc(-c2ccccc2F)c(F)c1 (stereo not drawn) [Compound 73, 2-{[(2,2′-difluorobiphenyl-4-yl)carbonyl](methyl)amino}-N-hydroxy-N′-methylpropanediamide]"
4,< 10 nM,"CNC(=O)C(C(=O)NO)N(C)C(=O)c1ccc(-c2ccc(/C=N/N(C)C)cc2)cc1 (stereo not drawn) [Compound 275, 2-[({4′-[(E)-(dimethylhydrazinylidene)methyl]biphenyl-4-yl}carbonyl)(methyl)amino]-N-hydroxy-N′-methylpropanediamide]"
5,< 10 nM,"CNC(=O)C(C(=O)NO)N(C)C(=O)c1ccc(-c2ccc(N3CCC(CN4CCOCC4)C3)cc2)cc1 (stereo not drawn) [Compound 287, N-hydroxy-N′-methyl-2-[methyl({4′-[3-(morpholin-4-ylmethyl)pyrrolidin-1-yl]biphenyl-4-yl}carbonyl)amino]propanediamide]"
6,< 10 nM,"Cn1ccc(CNC(=O)C(NC(=O)c2ccc(-c3ccc(OCCO)cc3)cc2)C(=O)NO)n1 (stereo not drawn) [Compound 140, N-hydroxy-2-({[4′-(2-hydroxyethoxy)biphenyl-4-yl]carbonyl}amino)-N′-[(1-methyl-1H-pyrazol-3-yl)methyl]propanediamide]"
7,< 10 nM,"O=C(NC(C(=O)NO)C(=O)NCC1CCCO1)c1ccc(-c2ccc(OCCO)cc2)cc1 (stereo not drawn) [Compound 134, N-hydroxy-2-({[4′-(2-hydroxyethoxy)biphenyl-4-yl]carbonyl}amino)-N′-(tetrahydrofuran-2-ylmethyl)propanediamide]"
8,< 10 nM,"CNC(=O)C(C(=O)NO)N(C)C(=O)c1ccc(-c2ccc3c(c2)OCCO3)cc1 (stereo not drawn) [Compound 81, 2-{[4-(2,3-dihydro-1,4-benzodioxin-6-yl)benzoyl](methyl)amino}-N-hydroxy-N′-methylpropanediamide]"
9,< 10 nM,"CC(=O)NCCNC(=O)C(NC(=O)c1ccc(-c2ccc(OCCO)cc2)cc1)C(=O)NO (stereo not drawn) [Compound 135, N-[2-(acetylamino)ethyl]-N′-hydroxy-2-({[4′-(2-hydroxyethoxy)biphenyl-4-yl]carbonyl}amino)propanediamide]"
10,< 10 nM,"CNC(=O)C(C(=O)NO)N(C)C(=O)c1ccc(-c2ccc(NCCOC)c(F)c2)cc1 (stereo not drawn) [Compound 66, 2-[({3′-fluoro-4′-[(2-methoxyethyl)amino]biphenyl-4-yl}carbonyl)(methyl)amino]-N-hydroxy-N′-methylpropanediamide]"
